Reference: patent US12384753B2, “17-beta-hydroxysteroid dehydrogenase type 13 inhibitors and methods of use thereof” (Enanta Pharmaceuticals, Inc., priority 2021, dated 2025)

What follows are compounds tested against Recombinant human HSD17B13 (Homo sapiens (Human), UniProt Q7Z5P4) (assay: HSD17B13 rapid-fire mass spectrometry assay (RF/MS assay)). Details: inhibition of HSD17B13; LTB4 10 μM, NAD+ 0.5 mM, RT 3 h; IC50 ranges A-E.
Type: biochemical
Method in brief: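 Sf9-expressed human HSD17B13 (80 nM) with 10 μM LTB4 and 0.5 mM NAD+, incubated with compound (0–100 μM) for 3 h at RT in Tris pH 7.5/BSA/Tween-20. After formic acid quench, LTB4 conversion to 12-oxo-LTB4 measured by RapidFire MS/MS. IC50 from normalised residual activity, duplicates.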

Sequence of Recombinant human HSD17B13 (Q7Z5P4 20-300): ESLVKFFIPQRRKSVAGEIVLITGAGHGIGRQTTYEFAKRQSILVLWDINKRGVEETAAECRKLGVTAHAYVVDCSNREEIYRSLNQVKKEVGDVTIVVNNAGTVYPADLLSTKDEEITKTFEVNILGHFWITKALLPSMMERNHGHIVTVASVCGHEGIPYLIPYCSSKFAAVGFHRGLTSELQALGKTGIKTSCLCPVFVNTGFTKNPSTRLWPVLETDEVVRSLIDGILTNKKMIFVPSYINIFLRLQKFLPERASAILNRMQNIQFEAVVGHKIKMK

SMILES | IC50
CCCCOc1c(F)c(-c2nc(S(=O)(=O)Nc3cc(F)c(C(=O)O)cc3OC)cs2)ccc1[C@H]1CC[C@@H](C(C)C)CC1 [Example 588] | 100 to 500 nM
CCCCOc1c(F)c(-c2nc(S(=O)(=O)Nc3cc(F)c(C(=O)O)cc3OC)cs2)ccc1[C@H]1CC[C@H](C(C)C)CC1 [Example 589] | 100 to 500 nM
COc1cc(C(=O)O)c(F)cc1NS(=O)(=O)c1csc(-c2ccc(C3=CCC(C)(C)CC3)cc2C(F)F)n1 [Example 590] | < 100 nM
COc1cc(C(=O)O)c(F)cc1NS(=O)(=O)c1csc(-c2ccc(C3CCC(C)(C)CC3)cc2C(F)F)n1 [Example 591] | < 100 nM
COc1cc(C(=O)O)c(F)cc1NS(=O)(=O)c1csc(-c2ccc(C3CC4CCC3C4)cc2)n1 (centres unmarked) [Example 592] | 100 to 500 nM
COc1cc(C(=O)O)c(F)cc1NS(=O)(=O)c1csc(-c2ccc(C3=CCC(C(C)(C)C)CC3)c(OC(C)C)c2F)n1 (centres unmarked) [Example 593] | < 100 nM
COc1cc(C(=O)O)c(F)cc1NS(=O)(=O)c1csc(-c2ccc(C3=CCC(C(C)(C)C)CC3)c(F)c2C)n1 (centres unmarked) [Example 594] | < 100 nM
COc1cc(C(=O)O)c(F)cc1NS(=O)(=O)c1csc(-c2ccc([C@H]3CC[C@@H](C(C)(C)C)CC3)c(F)c2C)n1 [Example 595] | 100 to 500 nM
COc1cc(C(=O)O)c(F)cc1NS(=O)(=O)c1csc(-c2ccc([C@H]3CC[C@H](C(C)(C)C)CC3)c(F)c2C)n1 [Example 596] | < 100 nM
COc1cc(C(=O)O)c(F)cc1NS(=O)(=O)c1csc(-c2ccc([C@H]3CC[C@@H](C(C)(C)C)CC3)c(OC(C)C)c2F)n1 [Example 597] | < 100 nM
COc1cc(C(=O)O)c(F)cc1NS(=O)(=O)c1csc(-c2ccc([C@H]3CC[C@H](C(C)(C)C)CC3)c(OC(C)C)c2F)n1 [Example 598] | 100 to 500 nM
COc1cc(C(=O)O)c(F)cc1NS(=O)(=O)c1csc(-c2ccc(C3=CCC(C(F)(F)F)CC3)c(F)c2C)n1 (centres unmarked) [Example 599] | < 100 nM
COc1cc(C(=O)O)c(F)cc1NS(=O)(=O)c1csc(-c2ccc(C3=CCC(C(F)(F)F)CC3)c(OC)c2F)n1 (centres unmarked) [Example 600] | < 100 nM
COc1cc(C(=O)O)c(F)cc1NS(=O)(=O)c1csc(-c2ccc(C3=CCC(C(F)(F)F)CC3)cc2C(F)(F)F)n1 (centres unmarked) [Example 601] | < 100 nM
COc1cc(C(=O)O)c(F)cc1NS(=O)(=O)c1csc(-c2ccc([C@H]3CC[C@@H](C(F)(F)F)CC3)c(F)c2C)n1 [Example 602] | < 100 nM
COc1cc(C(=O)O)c(F)cc1NS(=O)(=O)c1csc(-c2ccc([C@H]3CC[C@H](C(F)(F)F)CC3)c(F)c2C)n1 [Example 603] | < 100 nM
COc1cc(C(=O)O)c(F)cc1NS(=O)(=O)c1csc(-c2ccc([C@H]3CC[C@H](C(F)(F)F)CC3)c(OC)c2F)n1 [Example 605] | < 100 nM
COc1cc(C(=O)O)c(F)cc1NS(=O)(=O)c1csc(-c2ccc([C@H]3CC[C@@H](C(F)(F)F)CC3)cc2C(F)(F)F)n1 [Example 606] | < 100 nM
COc1cc(C(=O)O)c(F)cc1NS(=O)(=O)c1csc(-c2ccc([C@H]3CC[C@H](C(F)(F)F)CC3)cc2C(F)(F)F)n1 [Example 607] | < 100 nM
COc1cc(C(=O)O)ccc1NS(=O)(=O)c1csc(-c2ccc([C@H]3CC[C@@H](C(F)(F)F)CC3)cc2)n1 [Example 608] | 100 to 500 nM
COc1cc(C(=O)O)ccc1NS(=O)(=O)c1coc(-c2ccc([C@H]3CC[C@@H](C(F)(F)F)CC3)cc2)n1 [Example 609] | < 100 nM
COc1cc(C(=O)O)ccc1NS(=O)(=O)c1coc(-c2ccc([C@H]3CC[C@H](C(F)(F)F)CC3)cc2)n1 [Example 610] | 100 to 500 nM

SMILES | IC50
COc1cc(C(=O)O)c(F)cc1NS(=O)(=O)c1cccc(-c2ccc([C@H]3CC[C@H](C(C)(C)C)CC3)cc2)c1F [Example 612] | < 100 nM
COc1cc(C(=O)O)c(F)cc1NS(=O)(=O)c1ncc(-c2ccc(F)cc2)s1 [Example 614] | < 100 nM
CC[C@H]1CC[C@H](c2ccc(-c3cnc(S(=O)(=O)Nc4cc(F)c(C(=O)O)cc4OC)s3)cc2)CC1 [Example 615] | 100 to 500 nM
COc1cc(C(=O)O)c(F)cc1NS(=O)(=O)c1ncc(-c2ccc(C3CCCCC3)cc2)s1 [Example 616] | 100 to 500 nM
COc1cc(C(=O)O)c(F)cc1NS(=O)(=O)c1coc(-c2ccc(C3=CCC4(CC3)OCCO4)cc2)n1 [Example 617] | < 100 nM
COc1cc(C(=O)O)c(F)cc1NS(=O)(=O)c1coc(-c2ccc(C3CCC4(CC3)OCCO4)cc2)n1 [Example 618] | < 100 nM
COc1cc(C(=O)O)c(F)cc1NS(=O)(=O)c1csc(-c2ccc([C@H]3CC[C@@H](C(C)C)CC3)cc2C(F)(F)F)n1 [Example 619] | 100 to 500 nM
COc1cc(C(=O)O)c(F)cc1NS(=O)(=O)c1csc(-c2ccc([C@H]3CC[C@H](C(C)C)CC3)cc2C(F)(F)F)n1 [Example 620] | < 100 nM
COc1cc(C(=O)O)c(F)cc1NS(=O)(=O)c1ncc(-c2ccc([C@H]3CC[C@H](C(F)(F)F)CC3)cc2)s1 [Example 621] | 100 to 500 nM
COc1cc(C(=O)O)c(F)cc1NS(=O)(=O)c1cc(-c2ccc(C3CCCCC3)cc2)ccn1 [Example 622] | 500 to 1000 nM
COc1cc(C(=O)O)c(F)cc1NS(=O)(=O)c1coc(-c2ccc([C@H]3CC[C@@H](O)CC3)cc2)n1 [Example 623] | 100 to 500 nM
COc1cc(C(=O)O)c(F)cc1NS(=O)(=O)c1csc(-c2ccc(CC3CCCCC3)cc2)n1 [Example 624] | 100 to 500 nM
COc1cc(C(=O)O)c(F)cc1NS(=O)(=O)c1csc(-c2ccc(CCC(C)C)cc2)n1 [Example 625] | 100 to 500 nM
COc1cc(C(=O)O)c(F)cc1NS(=O)(=O)c1cnc(-c2ccc([C@H]3CC[C@@H](C)CC3)cc2)s1 [Example 626] | 100 to 500 nM
COc1cc(C(=O)O)c(F)cc1NS(=O)(=O)c1cnc(-c2ccc([C@H]3CC[C@H](C)CC3)cc2)s1 [Example 627] | < 100 nM
CCCCC[C@H]1CC[C@H](c2ccc(-c3ncc(S(=O)(=O)Nc4cc(F)c(C(=O)O)cc4OC)s3)cc2)CC1 [Example 628] | 100 to 500 nM
COc1cc(C(=O)O)c(F)cc1NS(=O)(=O)c1ccc2sc(-c3ccc(C4CCCCC4)cc3)nc2c1 [Example 629] | 100 to 500 nM
COc1cc(C(=O)O)c(F)cc1NS(=O)(=O)c1coc(-c2ccc(C3CCC(OC(=O)N4CCOCC4)CC3)cc2)n1 (centres unmarked) [Example 630] | < 100 nM
COc1cc(C(=O)O)c(F)cc1NS(=O)(=O)c1csc(-c2ccc(NC3CCC(C)(C)CC3)cc2)n1 [Example 631] | < 100 nM
CC[C@H]1CC[C@H](c2ccc(-c3nc4cc(S(=O)(=O)Nc5cc(F)c(C(=O)O)cc5OC)ccc4s3)cc2)CC1 [Example 632] | 100 to 500 nM
COc1cc(C(=O)O)c(F)cc1NS(=O)(=O)c1ncc(-c2ccc(C3=CCC(C(C)(C)C)CC3)cc2)s1 (centres unmarked) [Example 633] | 100 to 500 nM
COc1cc(C(=O)O)c(F)cc1NS(=O)(=O)c1csc(-c2ccc(-c3ccsc3)cc2)n1 [Example 634] | 100 to 500 nM

SMILES | IC50
COc1cc(C(=O)O)c(F)cc1NS(=O)(=O)c1csc(-c2ccc(-c3ccccn3)cc2)n1 [Example 635] | 100 to 500 nM
COc1cc(C(=O)O)c(F)cc1NS(=O)(=O)c1csc(-c2ccc(-c3csc4ccccc34)cc2)n1 [Example 636] | 100 to 500 nM
COc1cc(C(=O)O)c(F)cc1NS(=O)(=O)c1csc(-c2ccc(-c3cc4ccccc4[nH]3)cc2)n1 [Example 637] | 100 to 500 nM
COc1cc(C(=O)O)c(F)cc1NS(=O)(=O)c1csc(-c2ccc(-c3ccc4[nH]ccc4c3)cc2)n1 [Example 638] | < 100 nM
COc1cc(C(=O)O)c(F)cc1NS(=O)(=O)c1csc(-c2ccc(-c3ccc4ncccc4c3)cc2)n1 [Example 639] | < 100 nM
CC[C@H]1CC[C@H](c2ccc(-c3ccnc(S(=O)(=O)Nc4cc(F)c(C(=O)O)cc4OC)c3)cc2)CC1 [Example 640] | 100 to 500 nM
COc1cc(C(=O)O)c(F)cc1NS(=O)(=O)c1cc(-c2ccc([C@H]3CC[C@H](C(F)(F)F)CC3)cc2)ccn1 [Example 641] | 100 to 500 nM
CC[C@H]1CC[C@H](c2ccc(-c3ncc(S(=O)(=O)Nc4cc(F)c(C(=O)O)cc4OC)s3)cc2)CC1 [Example 642] | 100 to 500 nM
COc1cc(C(=O)O)c(F)cc1NS(=O)(=O)c1cnc(-c2ccc(C3CCC(c4ccccc4)CC3)cc2)s1 (centres unmarked) [Example 643] | 100 to 500 nM
COc1cc(C(=O)O)c(F)cc1NS(=O)(=O)c1csc(-c2ccc(-c3cn[nH]c3)cc2)n1 [Example 644] | 100 to 500 nM
COc1cc(C(=O)O)c(F)cc1NS(=O)(=O)c1csc(-c2ccc(-c3cccs3)cc2)n1 [Example 645] | 100 to 500 nM
COc1cc(C(=O)O)c(F)cc1NS(=O)(=O)c1csc(-c2ccc(-c3cc4ccccc4o3)cc2)n1 [Example 646] | < 100 nM
COc1cc(C(=O)O)c(F)cc1NS(=O)(=O)c1csc(-c2ccc(-c3cccc4[nH]ccc34)cc2)n1 [Example 647] | < 100 nM
CC[C@H]1CC[C@H](c2ccc(-c3nc(S(=O)(=O)Nc4ccc5c(O)cccc5c4OC)cs3)cc2)CC1 [Example 648] | 1000 to 100000 nM
COc1c(NS(=O)(=O)c2csc(-c3ccc([C@H]4CC[C@H](C(F)(F)F)CC4)cc3)n2)ccc2c(O)cccc12 [Example 649] | 1000 to 100000 nM
COc1cc(C(=O)O)c(F)cc1NS(=O)(=O)c1ccc2sc(-c3ccc([C@H]4CC[C@H](C(F)(F)F)CC4)cc3)nc2c1 [Example 650] | 100 to 500 nM
COc1cc(C(=O)O)c(F)cc1NS(=O)(=O)c1csc(-c2ccc(-c3cnoc3)cc2)n1 [Example 651] | 100 to 500 nM
COc1cc(C(=O)O)c(F)cc1NS(=O)(=O)c1csc(-c2ccc(-c3ccncc3)cc2)n1 [Example 652] | 100 to 500 nM
COc1cc(C(=O)O)c(F)cc1NS(=O)(=O)c1csc(-c2ccc(-c3ccc4c(c3)NCCO4)cc2)n1 [Example 653] | < 100 nM
COc1cc(C(=O)O)c(F)cc1NS(=O)(=O)c1csc(-c2ccc(-c3ccc4cnccc4c3)cc2)n1 [Example 654] | 100 to 500 nM
COc1cc(C(=O)O)c(F)cc1NS(=O)(=O)c1csc(-c2ccc(-c3cncc(F)c3)cc2)n1 [Example 655] | 100 to 500 nM
